Experimental data taken from patent US20100184770A1, “COMPOUNDS” (Glaxo Group Limited, priority 2006, published 2010).
Counter-ions that a name gives are not always drawn.

How the values were obtained:
[1] = target: T1, human H1 receptor (Homo sapiens, UniProt P35367); assay: Histamine H1 functional antagonist assay: determination of functional pKi values (FLIPR); format: cell-based; conditions: CHO cells expressing human H1 receptor, histamine at EC80, FLIPR, read-out: average pKi (pKb) at H1 (converted)
T1 construct: expressed in transfected cells
Experimental: (§1) 1. Generation of Histamine H1 Cell Line The human H1 receptor is cloned using known procedures described in the literature [Biochem. Biophys. Res. Commun., 201(2):894 (1994)]. Chinese hamster ovary (CHO) cells stably expressing the human H1 receptor are generated according to known procedures described in the literature [Br. J. Pharmacol., 117(6):1071 (1996)].
The histamine H1 cell line is seeded into non-coated black-walled clear bottom 384-well tissue culture plates in alpha minimum essential medium (Gibco/Invitrogen, cat no. 22561-021), supplemented with 10% dialysed foetal calf serum (Gibco/Invitrogen cat no. 12480-021) and 2 mM L-glutamine (Gibco/Invitrogen cat no 25030-024) and is maintained overnight at 5% CO2, 37° C.
Excess medium is removed from each well to leave 10 μl. 30 μl loading dye (250 μM Brilliant Black, 2 μM Fluo-4 diluted in Tyrodes buffer+probenecid (145 mM NaCl, 2.5 mM KCl, 10 mM HEPES, 10 mM D-glucose, 1.2 mM MgCl2, 1.5 mM CaCl2, 2.5 mM probenecid, pH adjusted to 7.40 with NaOH 1.0 M)) is added to each well and the plates are incubated for 60 min at 5% CO2, 37° C.
10 μl of test compound, diluted to the required concentration in Tyrodes buffer+probenecid (or 10 μl Tyrodes buffer+probenecid as a control) is added to each well and the plate is incubated for 30 min at 37° C., 5% CO2. The plates are then placed into a FLIPR™ (Molecular. Devices, UK) to monitor cell fluorescence (λex=488 nm, λEM=540 nm) in the manner described in Sullivan et al., (In: Lambert DG (ed.), Calcium Signaling Protocols, New Jersey: Humana Press, 1999, 125-136) before and after the addition of […] at a concentration that results in the final assay concentration of histamine being EC80.
Functional antagonism is indicated by a suppression of histamine induced increase in fluorescence, as measured by the FLIPR™ system (Molecular Devices). By means of concentration effect curves, functional affinities are determined using standard pharmacological mathematical analysis.

[2] = target: T1, human H1 receptor; assay: Histamine H1 functional antagonist assay: determination of antagonist duration (washout, FLIPR); format: cell-based; conditions: at one or more time points after washout
Experimental: as §1
To determine the antagonist duration, cells are cultured overnight in non-coated black-walled clear bottom 96-well tissue culture plates, are washed with PBS and are incubated with a concentration of antagonist chosen to give an approximate DR in the range 30-300. Following the 30 min antagonist incubation period, the cells are washed two or three times with 200 μl of PBS and then 100 μl Tyrodes buffer is added to each well to initiate antagonist dissociation. Following incubation for predetermined times, typically 30-270 min at 37° C., the cells are then washed again with 200 μl PBS and are incubated with 100 Tyrodes buffer containing Brilliant Black, probenecid and Fluo-4 for 45 min at 37° C., as described above. After this period, the cells are challenged with histamine in the FLIPR™ as described above. The dose ratio at each time point is used to determine the fractional H1 receptor occupancy by the following equation: fractional receptor occupancy=(DR-1)/DR. The decrease in receptor occupancy over time approximates to a straight line and is analysed by linear regression. The slope of this straight line fit is used as an index of the dissociation rate of the antagonist. The dose ratios for antagonist treated cells and for antagonist treated and washed cells at each time point are used to calculate a relative dose ratio (rel DR) which is also used as an index of antagonist duration. Antagonists with long duration of action produce rel DR values close to 1, and antagonists with short duration of action produce rel DR values that approaches the dose ratio value obtained for antagonist treatment alone.

[3] = system: histamine-induced congestion; assay: Intranasal challenge method: whole body plethysmography; format: in vivo, guinea pigs; conditions: for inhibition of the response to histamine challenge (PenH AUC): dosed intranasally at 1 mg/ml either 1 hr or 24 hr before histamine challenge
Experimental: Female Dunkin-Hartley guinea pigs 150-250 g are sensitised twice daily for 5 days (week 1) with ovalbumin (OVA) and aluminium hydroxide (Al(OH)3 or Alum) in physiological saline, 25 μl/nostril. Solution is made up at 20 μg/ml OVA, 180 mg/ml Alum. During weeks 2 and 3 animals receive 25 μl/nostril of OVA (5 mg/ml) once daily. During Week 4 guinea pigs will be entered into study but are continually sensitized as per weeks 2 and 3 until the day before dosing with compound or vehicle.
Pretreatment with test compound is performed at various times prior to histamine challenge. Efficacy dose-response curves are determined 1 hr and/or 3 hr after dosing whereas duration of action may be studied up to 7 days post dose. Test compounds are formulated as solutions in 0.9% sterile saline or suspensions in 0.9% sterile saline/tween80.
Guinea pigs were anaesthetised with isoflurane (5%, 2-31/min O2), placed in a supine position, and 25 μl of test compound or vehicle dosed into each nostril using a Gilson pipette. After dosing, animals remain supine for at least 30 seconds during recovery from anaesthesia.
At 30 minutes before the time of histamine challenge, guinea pigs are dosed with atropine sulphate (Sigma A0257, dissolved in saline), 1 mg/kg i.p. Animals are then placed into whole body plethysmograph systems (Buxco® Electronics) where the parameter PenH area under curve (AUC) is recorded as outlined in […], E., SCHWARZE, J., TAKEDA, K., OSHIBA, A., LARSEN, L., IRVIN, C. G. & GELFAND, E. W. (1997) Noninvasive measurement of airway responsiveness in allergic mice using barometric plethysmography. Am. J. Respir. Crit. Care Med. 156, 766-775.
Hamelmann et al. A 10 minute baseline AUC is recorded and if this value is over 1000, the animals are excluded.
After the stipulated pre-dose time has been reached, guinea pigs are re-anaesthetised with isoflurane and dosed with either 10 mM or 15 mM histamine or phosphate-buffered saline (PBS), (25 μl per nostril). On recovery from anaesthesia animals are returned to the individual plethysmograph chambers and 4×10 min consecutive PenH AUC recordings are made. These recordings are summed to give a cumulative AUC over 40 mins post histamine challenge for each animal. Data are analysed using ANOVA with post-hoc Fishers LSD test (general linear models, Statistica®) and finally Hochberg adjustment. Inhibition of histamine-induced congestion is determined by statistically significant differences between the mean responses of compound pre-treated groups compared to the vehicle pre-treated, histamine-challenged group.

T1 sequence (P35367 whole entry): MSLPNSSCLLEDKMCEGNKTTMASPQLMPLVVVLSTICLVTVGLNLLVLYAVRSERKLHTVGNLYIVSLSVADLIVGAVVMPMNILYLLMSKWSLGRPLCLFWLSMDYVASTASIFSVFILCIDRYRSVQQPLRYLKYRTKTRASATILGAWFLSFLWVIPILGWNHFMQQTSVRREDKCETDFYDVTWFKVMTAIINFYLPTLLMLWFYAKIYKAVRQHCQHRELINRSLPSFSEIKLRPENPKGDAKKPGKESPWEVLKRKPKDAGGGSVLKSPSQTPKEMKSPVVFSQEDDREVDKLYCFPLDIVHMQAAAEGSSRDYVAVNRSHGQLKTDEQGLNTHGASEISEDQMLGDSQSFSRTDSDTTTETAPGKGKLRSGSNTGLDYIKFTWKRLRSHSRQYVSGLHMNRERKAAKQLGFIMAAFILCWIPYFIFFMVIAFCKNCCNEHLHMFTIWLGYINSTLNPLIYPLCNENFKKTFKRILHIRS

O=C(CC(F)(F)F)NCCN1CCC[C@@H]1Cn1nc(Cc2ccc(Cl)cc2)c2ccccc2c1=O.O=C(O)C(F)(F)F [Example 36b, N-[2-((2R)-2-{[4-[(4-chlorophenyl)methyl]-1-oxo-2(1H)-phthalazinyl]methyl}-1-pyrrolidinyl)ethyl]-3,3,3-trifluoropropanamide, trifluoroacetate]
Ki [1]: < 31.6 nM
duration of action compared with azelastine in the histamine H1 functional antagonist assay [2]: longer duration of action than azelastine
inhibition of the response to histamine challenge (PenH AUC) [3]: significantly (p<0.05) inhibited the response at both timepoints

COCCCC(=O)NCCN1CCC[C@@H]1Cn1nc(Cc2ccc(Cl)cc2)c2cnccc2c1=O [Example 70, N-[2-((2R)-2-{[4-[(4-chlorophenyl)methyl]-1-oxopyrido[3,4-d]pyridazin-2(1H)-yl]methyl}-1-pyrrolidinyl)ethyl]-4-(methyloxy)butanamide, trifluoroacetate]
duration of action compared with azelastine in the histamine H1 functional antagonist assay [2]: longer duration of action than azelastine

O=C(CCN1CCC[C@@H]1Cn1nc(Cc2ccc(Cl)cc2)c2ccccc2c1=O)NCC(F)F.O=CO [Example 6, formic acid-3-((2R)-2-{[4-[(4-chlorophenyl)methyl]-1-oxo-2(1H)-phthalazinyl]methyl}-1-pyrrolidinyl)-N-(2,2-difluoroethyl)propanamide (1:1)]
duration of action compared with azelastine in the histamine H1 functional antagonist assay [2]: longer duration of action than azelastine

CC(C)(C)C(=O)NCCN1CCC[C@@H]1Cn1nc(Cc2ccc(Cl)cc2)c2ccccc2c1=O.O=C(O)C(F)(F)F [Example 38, N-[2-((2R)-2-{[4-[(4-chlorophenyl)methyl]-1-oxo-2(1H)-phthalazinyl]methyl}-1-pyrrolidinyl)ethyl]-2,2-dimethylpropanamide, trifluoroacetate]
duration of action compared with azelastine in the histamine H1 functional antagonist assay [2]: longer duration of action than azelastine

O=C(CCN1CCC[C@@H]1Cn1nc(Cc2ccc(Cl)cc2)c2ccccc2c1=O)NCC(F)(F)F [Example 4, 3-((2R)-2-{[4-[(4-chlorophenyl)methyl]-1-oxo-2(1H)-phthalazinyl]methyl}-1-pyrrolidinyl)-N-(2,2,2-trifluoroethyl)propanamide]
duration of action compared with azelastine in the histamine H1 functional antagonist assay [2]: longer duration of action than azelastine

CC(C)(C)C(=O)NCCCN1CCC[C@@H]1Cn1nc(Cc2ccc(Cl)cc2)c2cnccc2c1=O.O=C(O)C(F)(F)F [Example 80, N-[3-((2R)-2-{[4-[(4-chlorophenyl)methyl]-1-oxopyrido[3,4-d]pyridazin-2(1H)-yl]methyl}-1-pyrrolidinyl)propyl]-2,2-dimethylpropanamide, trifluoroacetate]
duration of action compared with azelastine in the histamine H1 functional antagonist assay [2]: longer duration of action than azelastine

CCOCCNC(=O)CCN1CCCC1Cn1nc(Cc2ccc(Cl)cc2)c2ccccc2c1=O.O=C(O)C(F)(F)F [Example 22, 3-((2R)-2-{[4-[(4-chlorophenyl)methyl]-1-oxo-2(1H)-phthalazinyl]methyl}-1-pyrrolidinyl)-N-[2-(ethyloxy)ethyl] propanamide, trifluoroacetate]
duration of action compared with azelastine in the histamine H1 functional antagonist assay [2]: longer duration of action than azelastine

COCCCC(=O)NCCN1CCC[C@@H]1Cn1nc(Cc2ccc(Cl)cc2)c2ccccc2c1=O [Example 34, N-[2-((2R)-2-{[4-[(4-Chlorophenyl)methyl]-1-oxo-2(1H)-phthalazinyl]methyl}-1-pyrrolidinyl)ethyl]-4-(methyloxy)butanamide]
inhibition of the response to histamine challenge (PenH AUC), 3 hr timepoint ([3]; another experiment, dosed intranasally at 1 mg/ml and at 10 mg/ml 3 hr before histamine challenge): significantly (p<0.05) inhibited the response at the 3 hr timepoint
inhibition of the response to histamine challenge (PenH AUC), 24 hr timepoint ([3]; another experiment, dosed intranasally at 1 mg/ml and at 10 mg/ml 24 hr before histamine challenge): not the 24 hr timepoint
inhibition of the response to histamine challenge (PenH AUC) [3]: significantly (p<0.05) inhibited the response at both timepoints

COCCN(C)C(=O)CCN1CCC[C@@H]1Cn1nc(Cc2ccc(Cl)cc2)c2ccccc2c1=O.O=C(O)C(F)(F)F [Example 14, 3-((2R)-2-{[4-[(4-chlorophenyl)methyl]-1-oxo-2(1H)-phthalazinyl]methyl}-1-pyrrolidinyl)-N-methyl-N-[2-(methyloxy)ethyl] propanamide, trifluoroacetate]
duration of action compared with azelastine in the histamine H1 functional antagonist assay [2]: longer duration of action than azelastine

CN1CCCC(n2nc(Cc3ccc(Cl)cc3)c3ccccc3c2=O)CC1 (stereo not shown) [azelastine, reference compound]
inhibition of the response to histamine challenge (PenH AUC) [3]: failed to show a similar duration of action

COCCCC(=O)NCCN1CCC[C@@H]1Cn1nc(Cc2ccc(Cl)cc2)c2ccccc2c1=O.Cl [Example 34a, N-[2-((2R)-2-{[4-[(4-Chlorophenyl)methyl]-1-oxo-2(1H)-phthalazinyl]methyl}-1-pyrrolidinyl)ethyl]-4-(methyloxy)butanamide, hydrochloride salt]
inhibition of the response to histamine challenge (PenH AUC) [3]: significantly (p<0.05) inhibited the response at both timepoints

COCCCC(=O)NCCN1CCC[C@@H]1Cn1nc(Cc2ccc(Cl)cc2)c2ccccc2c1=O.O=C(O)C(F)(F)F [Example 34c, N-[2-((2R)-2-{[4-[(4-Chlorophenyl)methyl]-1-oxo-2(1H)-phthalazinyl]methyl}-1-pyrrolidinyl)ethyl]-4-(methyloxy)butanamide, trifluoroacetate salt]
inhibition of the response to histamine challenge (PenH AUC) [3]: significantly (p<0.05) inhibited the response at both timepoints
